Reference: the NIST ThermoML archive (doi:10.1016/j.jct.2014.10.014)

Experiment: mn = molality of the nth substance listed, in mol/kg
Conditions: 100 kPa, Liquid, Alternating current cell with electrodes

C[C@H](CCC(=O)[O-])[C@H]1CC[C@H]2[C@@H]3CC[C@@H]4C[C@H](O)CC[C@]4(C)[C@H]3C[C@H](O)[C@]12C.[Na+] [sodium deoxycholate] + O
electrical conductivity [S/m]
Conditions | 293.15 K | 298.15 K | 303.15 K | 308.15 K | 313.15 K | 318.15 K
m1 = 0.0005 | 0.003 | 0.0035 | 0.004 | 0.0035 | 0.0035 | 0.004
m1 = 0.001 | 0.0065 | 0.0065 | 0.007 | 0.0065 | 0.0065 | 0.007
m1 = 0.0015 | 0.0095 | 0.0095 | 0.01 | 0.0095 | 0.01 | 0.01
m1 = 0.002 | 0.0125 | 0.0125 | 0.013 | 0.0124 | 0.0128 | 0.013
m1 = 0.0025 | 0.0155 | 0.0155 | 0.016 | 0.0153 | 0.016 | 0.016
m1 = 0.003 | 0.0185 | 0.0182 | 0.0191 | 0.0185 | 0.019 | 0.019
m1 = 0.0035 | 0.021 | 0.0213 | 0.0218 | 0.022 | 0.022 | 0.022
m1 = 0.004 | 0.0242 | 0.0243 | 0.0248 | 0.025 | 0.0245 | 0.025
m1 = 0.0045 | 0.027 | 0.0275 | 0.0274 | 0.028 | 0.028 | 0.028
m1 = 0.005 | 0.03 | 0.0305 | 0.0305 | 0.031 | 0.0305 | 0.031
m1 = 0.0055 | 0.033 | 0.0335 | 0.0335 | 0.0335 | 0.0335 | 0.034
m1 = 0.006 | 0.0355 | 0.036 | 0.0358 | 0.0365 | 0.0365 | 0.037
m1 = 0.0065 | 0.038 | 0.0385 | 0.038 | 0.0385 | 0.0385 | 0.04
m1 = 0.007 | 0.0399 | 0.0405 | 0.0405 | 0.041 | 0.0405 | 0.0425
m1 = 0.0075 | 0.042 | 0.0425 | 0.043 | 0.0435 | 0.0425 | 0.045
m1 = 0.008 | 0.044 | 0.0445 | 0.0455 | 0.0455 | 0.045 | 0.0475
m1 = 0.0085 | 0.046 | 0.0465 | 0.048 | 0.048 | 0.0475 | 0.05
m1 = 0.009 | 0.048 | 0.0485 | 0.0499 | 0.05 | 0.0499 | 0.0525
m1 = 0.0095 | 0.05 | 0.051 | 0.052 | 0.0525 | 0.0519 | 0.055
m1 = 0.01 | 0.0518 | 0.053 | 0.054 | 0.055 | 0.0539 | 0.0575

C[C@H](CCC(=O)[O-])[C@H]1CC[C@H]2[C@@H]3[C@H](O)C[C@@H]4C[C@H](O)CC[C@]4(C)[C@H]3C[C@H](O)[C@]12C.[Na+] [sodium cholate] + O
electrical conductivity [S/m]
Conditions | 293.15 K | 298.15 K | 303.15 K | 308.15 K | 313.15 K | 318.15 K
m1 = 0.001 | 0.0066 | 0.007 | 0.005 | 0.007 | 0.0075 | 0.0115
m1 = 0.002 | 0.0129 | 0.014 | 0.0115 | 0.014 | 0.014 | 0.0175
m1 = 0.003 | 0.019 | 0.0204 | 0.018 | 0.02 | 0.02 | 0.0235
m1 = 0.004 | 0.0254 | 0.0267 | 0.0242 | 0.0263 | 0.0265 | 0.0305
m1 = 0.005 | 0.031 | 0.0326 | 0.0308 | 0.0332 | 0.0332 | 0.0369
m1 = 0.006 | 0.0378 | 0.0386 | 0.0373 | 0.0397 | 0.0395 | 0.043
m1 = 0.007 | 0.0434 | 0.0442 | 0.0439 | 0.0454 | 0.0466 | 0.0497
m1 = 0.008 | 0.0503 | 0.0498 | 0.0503 | 0.0524 | 0.0533 | 0.0565
m1 = 0.009 | 0.0558 | 0.0562 | 0.057 | 0.0584 | 0.06 | 0.0633
m1 = 0.01 | 0.0628 | 0.063 | 0.0635 | 0.0653 | 0.0668 | 0.0705
m1 = 0.011 | 0.0689 | 0.0687 | 0.07 | 0.0735 | 0.0745 | 0.0779
m1 = 0.012 | 0.0754 | 0.0753 | 0.076 | 0.0798 | 0.0815 | 0.0855
m1 = 0.013 | 0.0827 | 0.0825 | 0.082 | 0.0861 | 0.0885 | 0.093
m1 = 0.014 | 0.0881 | 0.088 | 0.0873 | 0.0911 | 0.0939 | 0.0985
m1 = 0.015 | 0.0929 | 0.0928 | 0.093 | 0.0967 | 0.0995 | 0.104
m1 = 0.016 | 0.0985 | 0.097 | 0.0981 | 0.102 | 0.104 | 0.111
m1 = 0.017 | 0.103 | 0.101 | 0.103 | 0.108 | 0.11 | 0.117
m1 = 0.018 | 0.107 | 0.105 | 0.108 | 0.113 | 0.115 | 0.122
m1 = 0.019 | 0.111 | 0.109 | 0.113 | 0.118 | 0.12 | 0.127
m1 = 0.02 | 0.115 | 0.112 | 0.118 | 0.123 | 0.126 | 0.132
